Experimental data from patent publication US6004957A, “Sulfonamide inhibitors of aspartyl protease” (Vertex Pharmaceuticals, Incorporated, priority 1998, dated 1999).

Test system: HIVIIIb in CCRM-CEM cells
Experiment: Anti-viral potency in CCRM-CEM cells acutely infected with HIVIIIb (method of Meek et al.), extracellular p24 antigen
Assay type: cell-based, HIV-1
Conditions: Human immunodeficiency virus 1, HIV replication, Table VIII, read-out: IC90 Range
Text: As discussed above, the novel compounds of the present invention are excellent ligands for aspartyl proteases, particularly HIV-1 and HIV-2 proteases. Accordingly, these compounds are capable of targeting and inhibiting late stage events in HIV replication, i.e., the processing of the viral polyproteins by HIV encoded proteases. […] Because aspartyl protease is essential for the production of mature virions, inhibition of that processing effectively blocks the spread of virus by inhibiting the production of infectious virions, particularly from chronically infected cells. […] Other anti-viral assays have confirmed the potency of these compounds.
Compounds of formula I were tested for their antiviral potency in several virological assays. In the first assay, the compounds were added as a solution in dimethylsulfoxide (DMSO) to a test cell culture of CCRM-CEM cells, a strain of CD4^+ human T-cell lymphoma cells, previously acutely infected with HIVIIIb using standard protocols (see Meek, T. D. et al., "Inhibition of HIV-1 protease in infected T-lymphocytes by synthetic peptide analogues", Nature, 343, p. 90 (1990). Preferred compounds are those which are able to inhibit 90% of viral infectivity at a concentration of 1 μM or less. More preferred compounds are those which are able to inhibit 90% of viral infectivity at a concentration of 100 nM or less.
The effect of the compounds on inhibiting the replication of the virus was measured by determining the HIV extracellular p24 antigen concentration using a commercial enzyme immunoassay (obtained from Coulter Corporation, Hialeah, Fla.).

CC(C)CN(C[C@@H](O)[C@H](Cc1ccccc1)NC(=O)OC(C)(C)C)S(=O)(=O)c1ccc2nonc2c1 [Compound 64]
IC90: 1000 to 10000 nM

CC(C)CN(C[C@@H](O)[C@H](Cc1ccccc1)NC(=O)OCc1ccccc1)S(=O)(=O)c1ccc2nonc2c1 [Compound 65]
IC90: 1000 to 10000 nM

CC(C)CN(C[C@@H](O)[C@H](Cc1ccccc1)NC(=O)O[C@H]1CCOC1)S(=O)(=O)c1ccc2nonc2c1 [Compound 66]
IC90: 101 to 1000 nM

C=CCOC(=O)N[C@@H](Cc1ccccc1)[C@H](O)CN(CC(C)C)S(=O)(=O)c1ccc(Cl)c(Cl)c1 [Compound 81]
IC90: 1000 to 10000 nM

CC(C)CN(C[C@@H](O)[C@H](Cc1ccccc1)NC(=O)OCc1cccnc1)S(=O)(=O)c1ccc2nonc2c1 [Compound 82]
IC90: 1000 to 10000 nM

CC(C)(C)OC(=O)N[C@@H](Cc1ccccc1)[C@H](O)CN(CC1CCCC1)S(=O)(=O)c1ccc(Cl)c(Cl)c1 [Compound 84]
IC90: 1000 to 10000 nM

CC(C)CN(C[C@@H](O)[C@H](Cc1ccccc1)NC(=O)OCC1CCOC1)S(=O)(=O)c1ccc(Cl)c(Cl)c1 (some centres unmarked) [Compound 85]
IC90: 1000 to 10000 nM

CC(=O)Nc1ccc(S(=O)(=O)N(CC(C)C)C[C@@H](O)[C@H](Cc2ccccc2)NC(=O)OC2CCOC2)cc1 (stereo partly drawn) [Compound 86, N-(4-(((2 syn,3S)-2-Hydroxy-4-phenyl-3-((R)-tetrahydrofuran-3-yloxycarbonylamino)-butyl)-isobutyl-sulfamoyl-phenyl)-acetamide and N-(4-(((2 syn,3S)-2-Hydroxy-4-phenyl-3-((S)-tetrahydrofuran-3-yloxycarbonylamino)-butyl)-isobutyl-sulfamoyl)-phenyl)-acetamide]
IC90: 101 to 1000 nM

CC(=O)Nc1cc(S(=O)(=O)N(CC(C)C)C[C@@H](O)[C@H](Cc2ccccc2)NC(=O)O[C@H]2CCOC2)ccc1F [Compound 88, N-(2-Fluoro-5-(((2 syn,3S)-2-hydroxy-4-phenyl-3-((S)-tetrahydrofuran-3-yloxycarbonylamino)-butyl)-isobutyl-sulfamoyl)-phenyl)-acetamide]
IC90: 101 to 1000 nM

CCCOC(=O)N[C@@H](Cc1ccccc1)[C@H](O)CN(CC(C)C)S(=O)(=O)c1ccc(Cl)c(Cl)c1 [Compound 89]
IC90: 1000 to 10000 nM

CC(=O)Nc1cccc(S(=O)(=O)N(CC(C)C)C[C@@H](O)[C@H](Cc2ccccc2)NC(=O)O[C@H]2CCOC2)c1 [Compound 91, N-(3-(((2 syn,3S)-2-Hydroxy-4-phenyl-3-((S)-tetrahydrofuran-3-yloxycarbonylamino)-butyl)-isobutyl-sulfamoyl)-phenyl)-acetamide]
IC90: 101 to 1000 nM

CC(C)CN(C[C@@H](O)[C@H](Cc1ccccc1)NC(=O)O[C@@H]1CCOC1)S(=O)(=O)c1ccc(F)cc1 [Compound 93, 4-Fluoro-N-((2 syn,3S)-2-hydroxy-4-phenyl-3-((R)-tetrahydrofuran-3-yloxycarbonylamino)-butyl)-N-isobutyl-benzenesulfonamide]
IC90: 101 to 1000 nM

CC(=O)Nc1ccc(S(=O)(=O)N(CC(C)C)C[C@@H](O)[C@H](Cc2ccccc2)NC(=O)O[C@@H]2CCOC2)cc1 [Compound 94, N-(4-(((syn)-2-Hydroxy-(S)-4-phenyl-3-((tetrahydro-furan-(R)-3-yl)-oxycarbonylamino)-butyl)-isobutyl-sulfamoyl)-phenyl)-acetamide]
IC90: 101 to 1000 nM

CC(C)CN(C[C@@H](O)[C@H](Cc1ccccc1)NC(=O)O[C@H]1CCOC1)S(=O)(=O)c1cc(Cl)c(Cl)s1 [Compound 95]
IC90: 1000 to 10000 nM

CC(C)CN(C[C@@H](O)[C@H](Cc1ccccc1)NC(=O)OCc1cccnc1)S(=O)(=O)c1ccc(F)cc1 [Compound 98, 4-Fluoro-N-((2 syn,3S)-2-hydroxy-4-phenyl-3-(pyridin-3-yl-methoxycarbonylamino)-butyl)-N-isobutyl-benzenesulfonamide]
IC90: 101 to 1000 nM

CC(C)CN(C[C@@H](O)[C@H](Cc1ccccc1)NC(=O)O[C@H]1CCOC1)S(=O)(=O)c1ccc(Cl)cc1 [Compound 99, 4-Chloro-N-((2 syn,3S)-2-hydroxy-4-phenyl-3-((S)-tetrahydrofuran-3-yloxycarbonylamino)-butyl)-isobutyl-benzenesulfonamide]
IC90: 101 to 1000 nM

COc1ccc(S(=O)(=O)N(CC(C)C)C[C@@H](O)[C@H](Cc2ccccc2)NC(=O)O[C@H]2CCOC2)cc1 [Compound 100, N-((2 syn,3S)-2-Hydroxy-4-phenyl-3-((S)-tetrahydrofuran-3-yloxycarbonylamino)-butyl)-N-isobutyl-4-methoxy-benzenesulfonamide]
IC90: < 100 nM

COC(=O)N[C@@H](Cc1ccccc1)[C@H](O)CN(CC(C)C)S(=O)(=O)c1ccc(Cl)c(Cl)c1 [Compound 103]
IC90: 1000 to 10000 nM

COC(=O)N[C@@H](Cc1ccccc1)[C@H](O)CN(CC(C)C)S(=O)(=O)c1ccc(F)cc1 [Compound 104]
IC90: 1000 to 10000 nM

C=C(C)COC(=O)N[C@@H](Cc1ccccc1)[C@H](O)CN(CC(C)C)S(=O)(=O)c1ccc(Cl)c(Cl)c1 [Compound 106]
IC90: 1000 to 10000 nM

C=C(C)COC(=O)N[C@@H](Cc1ccccc1)[C@H](O)CN(CC(C)C)S(=O)(=O)c1ccc(F)cc1 [Compound 107]
IC90: 1000 to 10000 nM

CC(C)CN(C[C@@H](O)[C@H](Cc1ccccc1)NC(=O)OC[C@@H]1COC(=O)N1)S(=O)(=O)c1ccc(F)cc1 [Compound 109, 4-Fluoro-N-(2-(syn)-hydroxy-3-((2-oxazolidon-(S)-4-yl)-methoxycarbonylamino)-4-(S)-phenyl-butyl)-N-isobutyl-benzenesulfonamide]
IC90: 101 to 1000 nM

O=C(N[C@@H](Cc1ccccc1)[C@H](O)CN(CC1CCCC1)S(=O)(=O)c1ccc(F)cc1)OCc1cccnc1 [Compound 111]
IC90: 1000 to 10000 nM

CC(C)CN(C[C@@H](O)[C@H](Cc1ccccc1)NC(=O)O[C@H]1CCOC1)S(=O)(=O)c1cccc(S(N)(=O)=O)c1 [Compound 112, Benzene-1,3-disulfonic acid 1-amide 3-((2 syn,3S)-2-hydroxy-4-phenyl-3-(3-(S)-tetrahydrofuran-3-yloxycarbonylamino)-butyl)-isobutyl-amide]
IC90: 101 to 1000 nM

CC(C)CN(C[C@@H](O)[C@H](Cc1ccccc1)NC(=O)O[C@H]1CCOC1)S(=O)(=O)c1ccoc1 [Compound 113]
IC90: 101 to 1000 nM

C=CCOC(=O)N[C@@H](Cc1ccccc1)[C@H](O)CN(CC1CCCC1)S(=O)(=O)c1ccc(F)cc1 [Compound 114, N-((3-Allyloxycarbonylamino)-(2 syn,3S)-2-hydroxy-4-phenyl-butyl)-N-cyclopentylmethyl-4-fluoro-benzenesulfonamide]
IC90: 101 to 1000 nM

CCOC(=O)N[C@@H](Cc1ccccc1)[C@H](O)CN(CC1CCCC1)S(=O)(=O)c1ccc(F)cc1 [Compound 115, N-Cyclopentylmethyl-N-((3-ethoxycarbonylamino)-(2 syn,3S)-2-hydroxy-4-phenyl-butyl)-4-fluoro-benzenesulfonamide]
IC90: 101 to 1000 nM

O=C(N[C@@H](Cc1ccccc1)[C@H](O)CN(CC1CCCC1)S(=O)(=O)c1ccc(Cl)cc1)O[C@H]1CCOC1 [Compound 116, 4-Chloro-N-cyclopentylmethyl-N-((2 syn,3S)-2-hydroxy-4-phenyl-3-((S)-tetrahydrofuran-3-yloxycarbonylamino)-butyl)-benzenesulfonamide]
IC90: < 100 nM

C=CCOC(=O)N[C@@H](Cc1ccccc1)[C@H](O)CN(CC1CCCC1)S(=O)(=O)c1ccc(Cl)cc1 [Compound 117]
IC90: 1000 to 10000 nM

O=C(N[C@@H](Cc1ccccc1)[C@H](O)CN(CC1CCCC1)S(=O)(=O)c1ccc(Cl)cc1)OCc1cccnc1 [Compound 118]
IC90: 101 to 1000 nM

CCOC(=O)N[C@@H](Cc1ccccc1)[C@H](O)CN(CC(C)C)S(=O)(=O)c1ccc(Cl)c(Cl)c1 [Compound 119]
IC90: 1000 to 10000 nM

CCOC(=O)N[C@@H](Cc1ccccc1)[C@H](O)CN(CC(C)C)S(=O)(=O)c1ccc(F)cc1 [Compound 121]
IC90: 1000 to 10000 nM

C=CCOC(=O)N[C@@H](Cc1ccccc1)[C@H](O)CN(CC(C)C)S(=O)(=O)c1ccc(F)cc1 [Compound 122]
IC90: 1000 to 10000 nM

CC(C)CN(C[C@@H](O)[C@H](Cc1ccccc1)NC(=O)O[C@H]1CCOC1)S(=O)(=O)c1ccc(F)c(F)c1 [Compound 124]
IC90: 10000 to 40000 nM

CC(=O)Nc1ccc(S(=O)(=O)N(CC2CCCC2)C[C@@H](O)[C@H](Cc2ccccc2)NC(=O)O[C@H]2CCOC2)cc1 [Compound 125, N-(4-(Cyclopentylmethyl-((2 syn,3S)-2-hydroxy-4-phenyl-3-((S)-tetrahydrofuran-3-yloxycarbonylamino)-butyl)-sulfamoyl)-phenyl)-acetamide]
IC90: 101 to 1000 nM

C=C(C)CN(C[C@@H](O)[C@H](Cc1ccccc1)NC(=O)O[C@H]1CCOC1)S(=O)(=O)c1ccc(F)cc1 [Compound 135]
IC90: 1000 to 10000 nM

CC(C)CN(C[C@@H](O)[C@H](Cc1ccccc1)NC(=O)O[C@H]1CCOC1)S(=O)(=O)c1cccc(Cl)c1 [Compound 138, 3-Chloro-N-((2 syn,3S)-2-hydroxy-4-phenyl-3-((S)-tetrahydrofuran-3-yloxycarbonylamino)-butyl)-N-isobutyl-benzenesulfonamide]
IC90: 101 to 1000 nM

O=C1N[C@H](COC(=O)N[C@@H](Cc2ccccc2)[C@H](O)CN(CC2CCCC2)S(=O)(=O)c2ccc(Cl)cc2)CO1 [Compound 139, 4Chloro-N-cyclopentylmethyl-N-(2-(syn)-hydroxy-3-((2-oxazolidon-4-(S)-yl-methyl)-oxycarbonylamino)-4-phenyl-butyl)-benzenesulfonamide]
IC90: 101 to 1000 nM
